According to PMC6104039 (Nature Communications, 2018):
Several values for one entry are separate records, joined by “and”; a condition that tells them apart may be missing. Equal entries are not always repeated.

How the values were obtained:
C57BL6/J mice = assay: Hyperinsulinemic-euglycemic clamps; type: in vivo; conditions: 5 mg/kg, chow or HFD
Procedure: At 5 weeks of diet/drug treatment, mice underwent surgery to implant catheters into the left carotid artery and right jugular vein. Catheters were flushed every 1–2 days with heparinised saline to maintain patency. Approximately 6–8 days post surgery, and after a ~5 h fast, a hyperinsulinemic-euglycemic clamp was conducted. Mice were conscious, unrestrained and were not handled during the procedure to minimize stress. At −90 min, a primed (5 μCi) continuous infusion (0.05 μCi/min) of [3,^3H]-glucose (PerkinElmer) was commenced. Samples were collected at −30, −20, −10 and 0 min for basal glucose turnover (Rd) determination. […] Once blood glucose was stable, four sequential samples were taken to determine insulin-stimulated glucose turnover. A bolus of 2[^14C]deoxyglucose (10 μCi; PerkinElmer) was then administered and blood sampled at 2, 5, 10, 15, 20 and 30 min, prior to collection of muscles for determination of glucose uptake.

SkM = assay: Targeted quantification of sphingosine and dihydrosphingosine in SkM; type: in vivo, mice; conditions: 5 mg/kg daily
Text: Male C57BL6/J mice were obtained from the Animal Resources Centre in Perth (WA, Australia). […] Treatment was commenced at the same time as mice were randomised to dietary groups. The experiments were approved by the UNSW animal care and ethics committee (ACEC 15/48B), and followed guidelines issued by the National Health and Medical Research Council of Australia.

liver = assay: Lipidomic profiling of liver; type: in vivo, mice; conditions: for Ceramide 18:1/16:0 content of liver / Ceramide 18:1/18:0 content of liver / Ceramide 18:1/20:0 content of liver / Ceramide 18:1/22:0 content of liver / Ceramide 18:1/22:1 content of liver / Ceramide 18:1/24:0 content of liver / Ceramide 18:1/24:1 content of liver / SM 34:1 content of liver / SM 36:1 content of liver / SM 38:1 content of liver / SM 40:1 content of liver / SM 40:2 content of liver / SM 42:1 content of liver / SM 42:2 content of liver / SM 42:3 content of liver: individual mice; for Ceramide 18:1/16:0 content of liver / Ceramide 18:1/18:0 content of liver / Ceramide 18:1/20:0 content of liver / Ceramide 18:1/22:0 content of liver / Ceramide 18:1/22:1 content of liver / Ceramide 18:1/24:0 content of liver / Ceramide 18:1/24:1 content of liver: raw data Fig 3j; for SM 34:1 content of liver / SM 36:1 content of liver / SM 38:1 content of liver / SM 40:1 content of liver / SM 40:2 content of liver / SM 42:1 content of liver / SM 42:2 content of liver / SM 42:3 content of liver: raw data Fig 3k
Procedure: Male C57BL6/J mice were obtained from the Animal Resources Centre in Perth (WA, Australia). Mice were housed at 22 ± 1 °C with a controlled 12:12 h light-dark cycle and had ad libitum access to water and either chow (8% calories from fat) or HFD (45% calories from fat)[66] for 4–6 weeks. […] Treatment was commenced at the same time as mice were randomised to dietary groups. The experiments were approved by the UNSW animal care and ethics committee (ACEC 15/48B), and followed guidelines issued by the National Health and Medical Research Council of Australia.
Lipids were extracted from frozen tissue samples or cells using a two-phase procedure with methyl-tert-butyl ether (MTBE)/methanol/water (10:3:2.5, v/v/v)[67]. Frozen tissue samples (~20 mg) were homogenized in 0.2 mL methanol containing 0.01% butylated hydroxytoluene (BHT), using a Precellys 24 homogenizer and Cryolys cooling unit (Bertin Technologies) with CK14 (1.4-mm ceramic) beads. The homogenates were spiked with an internal standard mixture comprising 5 nmole 19:0/19:0 phosphatidylcholine and 2 nmole each of 17:0/17:0 phosphatidylethanolamine, 17:0/17:0 phosphatidylserine, 17:0/17:0 d5-diacylglycerol, 17:0/17:0 phosphatidylglycerol, 14:0/14:0/14:0/14:0 cardiolipin, 18:1/12:0 SM, 18:1/17:0 ceramide, 18:1/12:0 glucosylceramide, 18:1/12:0 lactosylceramide, 18:1/12:0 sulfatide (all from Avanti Polar Lipids, USA), and 17:0/17:0/17:0 TAG (Cayman Chemical, USA), then transferred to 10 mL screw cap glass tubes. The homogenization tubes containing beads were then washed with another 0.3 mL methanol, and this wash was combined with the first methanol extract, after which 1.7 mL MTBE was added and the samples were sonicated in an ice-cold sonicating water bath (Thermoline Scientific, Australia) for 30 min. Phase separation was induced by addition of 417 µL of mass spectrometry-grade water followed by vortexing and centrifugation at 1000 × g for 10 min. The upper organic phase was collected into 5 mL glass tubes. The lower phase was re-extracted by adding 1 mL MTBE, 300 μL methanol, and 250 μL water. The organic phases were combined in the 5 mL glass tubes and dried under vacuum in a Savant SC210 SpeedVac (Thermo Scientific), then reconstituted in 500 μL methanol and stored at −20 °C until analysis.
Lipidomic profiling was performed on a QExactive Plus mass spectrometer with heated electrospray ionization (HESI) probe and a Dionex UltiMate 2000 LC pump (Thermo Fisher Scientific). Extracts were resolved on a 2.1 × 100 mm Waters Acquity C18 UPLC column (1.7 µm […]), using a binary gradient in which mobile phase A consisted of acetonitrile:water (60:40), 10 mM ammonium formate, 0.1% formic acid; and mobile phase B was isopropanol:acetonitrile (90:10), 10 mM ammonium formate, 0.1% formic acid[68]. The flow rate was 260 µL/min and column oven 55 °C. Data was acquired in full scan/data-dependent MS^2 mode (full scan resolution 70,000 FWHM, scan range 400–1200 m/z). The ten most abundant ions in each cycle were subjected to MS^2 using an isolation window of 1.4 m/z, collision energy 30 eV, resolution 17,500, maximum integration time 110 ms and dynamic exclusion window 10 s. An exclusion list of background ions was used based on a solvent blank. LipidSearch v4.1.30 software (ThermoFisher Scientific) was used for chromatogram alignment, peak identification and integration. Each lipid peak was manually verified for column elution time and characteristic fragment ions. Data were then exported to an Excel spreadsheet for normalisation of each lipid to its class-specific internal standard, and lipid concentrations were calculated relative to the internal standard.
Data were log transformed, then subjected to two-tailed t-tests adjusted for multiple comparisons using GraphPad PRISM (Benjamini, Krieger and Yekutieli correction, Q = 1%).

CerS1 = biological target: T1, CerS1 (Homo sapiens, UniProt P27544); assay: CerS1 activity as a function of substrate concentration (Vmax, Khalf, mode of inhibition); type: biochemical; parameters: expressed in transfected cells; conditions: dihydrosphingosine and C18:0-CoA substrates
T1 sequence (P27544 1-350): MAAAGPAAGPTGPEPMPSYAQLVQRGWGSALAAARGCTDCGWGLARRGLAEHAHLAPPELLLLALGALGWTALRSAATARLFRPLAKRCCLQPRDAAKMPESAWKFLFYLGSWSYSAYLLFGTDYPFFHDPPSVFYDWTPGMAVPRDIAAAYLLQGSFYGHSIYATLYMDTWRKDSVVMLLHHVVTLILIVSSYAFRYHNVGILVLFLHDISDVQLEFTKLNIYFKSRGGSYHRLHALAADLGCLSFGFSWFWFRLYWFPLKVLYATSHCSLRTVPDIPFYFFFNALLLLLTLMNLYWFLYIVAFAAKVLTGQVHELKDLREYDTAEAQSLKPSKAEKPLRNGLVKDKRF

C[C@@](N)(CO)CCc1ccc(OCc2ccc(Cl)c(Cl)c2)cc1 [P053, (S)-2-amino-4-(4-(3,4-dichlorobenzyloxy)phenyl)-2-methylbutan-1-ol]
glucose infusion rate, peripheral glucose disposal, insulin-stimulated glucose uptake in SkM (C57BL6/J mice): no impact | dihydrosphingosine levels in SkM (SkM): not notably affected | increase of sphingosine levels in SkM (SkM; HFD): 22% | increase of sphingosine levels in SkM (SkM; chow diet, not significant): 11% | Ceramide 18:1/16:0 content of liver (liver; Chow + P053): 0.263 and 0.826 and 0.657 and 1.600 and 0.958 and 0.311 and 0.952 and 1.950 and 1.430 and 1.980 | Ceramide 18:1/18:0 content of liver (liver; Chow + P053): 0.468 and 0.536 and 0.500 and 0.564 and 0.490 and 0.488 and 0.800 and 0.676 and 0.526 and 0.572 | Ceramide 18:1/20:0 content of liver (liver; Chow + P053): 0.373 and 0.356 and 0.495 and 0.460 and 0.417 and 0.442 and 0.880 and 0.398 and 0.505 and 0.396 | Ceramide 18:1/22:0 content of liver (liver; Chow + P053): 3.920 and 1.760 and 3.420 and 5.450 and 4.500 and 5.040 and 3.220 and 5.390 and 4.280 and 5.730 | Ceramide 18:1/22:1 content of liver (liver; Chow + P053): 0.723 and 0.782 and 0.523 and 0.904 and 0.601 and 0.629 and 0.682 and 0.527 and 0.912 and 0.679 | Ceramide 18:1/24:0 content of liver (liver; Chow + P053): 3.590 and 2.080 and 4.670 and 4.260 and 5.640 and 4.820 and 3.660 and 3.820 and 3.320 and 4.860 | Ceramide 18:1/24:1 content of liver (liver; Chow + P053): 6.030 and 5.880 and 4.990 and 7.190 and 10.500 and 7.070 (2×) and 5.770 and 7.700 and 9.200 | SM 34:1 content of liver (liver; Chow + P053): 166.01 and 387.90 and 294.94 and 188.63 and 560.02 and 385.72 and 339.20 and 244.42 and 416.06 and 213.21 | SM 36:1 content of liver (liver; Chow + P053): 17.50 and 23.09 and 28.72 and 28.48 and 31.35 and 32.32 and 36.07 and 17.60 and 29.53 and 28.44 | SM 38:1 content of liver (liver; Chow + P053): 20.23 and 36.64 and 18.78 and 30.07 and 30.24 and 24.30 and 33.98 and 28.61 and 27.66 and 25.39 | SM 40:1 content of liver (liver; Chow + P053): 190.28 and 236.56 and 278.04 and 382.12 and 238.06 and 386.25 and 326.88 and 330.28 and 377.35 and 269.17 | SM 40:2 content of liver (liver; Chow + P053): 31.01 and 36.97 and 24.71 and 36.72 and 38.54 and 35.80 and 48.00 and 37.75 and 38.85 and 32.99 | SM 42:1 content of liver (liver; Chow + P053): 17.79 and 25.33 and 19.04 and 17.96 and 14.02 and 33.47 and 24.89 and 25.97 and 20.36 and 14.52 | SM 42:2 content of liver (liver; Chow + P053): 265.43 and 723.53 and 60.59 and 173.83 and 445.88 and 448.77 and 411.18 and 225.87 and 409.74 and 354.33 | SM 42:3 content of liver (liver; Chow + P053): 12.99 and 95.71 and 34.45 and 42.03 and 46.27 and 40.91 and 37.02 and 32.31 and 26.34 and 23.58 | Ceramide 18:1/16:0 content of liver (liver; HFD + P053): 1.320 and 0.972 and 0.437 and 1.310 and 0.312 and 0.006 and 2.340 and 2.140 and 1.290 and 1.500 | Ceramide 18:1/18:0 content of liver (liver; HFD + P053): 0.435 and 0.273 and 0.474 and 0.459 and 0.643 and 0.366 and 0.820 and 0.267 and 0.974 and 0.526 | Ceramide 18:1/20:0 content of liver (liver; HFD + P053): 0.582 and 0.659 and 1.010 and 1.000 and 0.971 and 0.637 and 0.716 and 0.382 and 1.670 and 1.340 | Ceramide 18:1/22:0 content of liver (liver; HFD + P053): 5.900 and 4.030 and 8.630 and 5.080 and 3.630 and 4.930 and 8.270 and 6.990 and 8.250 and 9.280 | Ceramide 18:1/22:1 content of liver (liver; HFD + P053): 0.333 and 0.644 and 0.674 and 0.925 and 0.703 and 0.380 and 0.572 and 0.319 and 0.786 and 0.444 | Ceramide 18:1/24:0 content of liver (liver; HFD + P053): 5.470 and 0.260 and 4.890 and 2.480 and 1.780 and 2.580 and 4.330 and 4.610 and 7.520 and 5.820 | Ceramide 18:1/24:1 content of liver (liver; HFD + P053): 6.580 and 2.880 and 4.960 and 4.030 and 5.720 and 2.860 and 6.330 and 6.390 and 11.600 and 5.550 | SM 34:1 content of liver (liver; HFD + P053): 482.51 and 71.17 and 450.03 and 341.58 and 602.82 and 140.43 and 342.86 and 326.17 and 1409.61 and 780.28 | SM 36:1 content of liver (liver; HFD + P053): 53.21 and 102.16 and 78.05 and 79.54 and 65.66 and 116.67 and 78.22 and 28.49 and 259.61 and 108.18 | SM 38:1 content of liver (liver; HFD + P053): 71.47 and 53.18 and 46.58 and 23.22 and 42.32 and 78.12 and 59.56 and 48.00 and 174.38 and 50.63 | SM 40:1 content of liver (liver; HFD + P053): 580.97 and 447.50 and 671.33 and 376.94 and 209.01 and 396.09 and 367.60 and 345.17 and 872.91 and 711.11 | SM 40:2 content of liver (liver; HFD + P053): 46.18 and 47.77 and 24.90 and 19.09 and 21.42 and 31.04 and 27.87 and 23.30 and 72.99 and 30.73 | SM 42:1 content of liver (liver; HFD + P053): 18.56 and 11.22 and 9.61 and 4.95 and 13.26 and 9.80 and 20.61 and 8.52 and 19.00 and 16.17 | SM 42:2 content of liver (liver; HFD + P053): 531.45 and 245.25 and 263.63 and 192.83 and 186.28 and 157.29 and 222.03 and 342.17 and 572.48 and 255.77 | SM 42:3 content of liver (liver; HFD + P053): 38.83 and 26.76 and 24.26 and 23.94 and 22.31 and 29.44 and 41.75 and 49.23 and 92.66 and 37.38 | 265 lipids measured in liver (liver; chow or HFD): none was significantly affected | mode of inhibition (CerS1): non-competitive inhibitor
